Source: patent US20050019926A1, “Compositions of nucleic acids and cationic aminoglycosides and methods of using and preparing the same” (Aradigm Corporation, priority 2001, published 2005)

Key:
plasmid DNA = experiment: agarose gel electrophoresis (gel retardation) of nucleic acid-aminoglycoside complexes; type: binding; settings: plasmid DNA complexed with 5-100 mM aminoglycoside
Protocol: Plasmid DNA and the three different prototype aminoglycosides (neomycin, gentamycin, tobramycin) were diluted to 2× the final desired concentration in separate vials. In formulations with a molar excess of DNA, the diluted aminoglycoside solution was added to the DNA using a pipette with light vortexing. In formulations with a molar excess of aminoglycoside, the DNA was added to the aminoglycoside solution with light vortexing. The formulations were allowed to rest for about 30 minutes before characterization. Complexes of Nucleic Acid-Aminoglycoside were prepared according to the above described method and then analyzed using agarose gel electrophoresis to verify that the nucleic acids were being complexed with the aminoglycosides. Specifically, complexes having varying doses of DNA to three different aminoglycosides were prepared such that plasmid DNA was complexed with 5-100 mM of Neomycin, Tobramycin and Gentamicin.

[1] = intravenous and subcutaneous; patients with normal renal function; Physicians' Desk Reference, 2001; cited from earlier work

| Compound | gel retardation (complexation of DNA with aminoglycoside) (plasmid DNA) | high dose delivered without adverse or unacceptable therapeutic effects [1] |
| --- | --- | --- |
| NC[C@H]1O[C@H](O[C@H]2[C@H](O)[C@@H](O[C@H]3O[C@H](CO)[C@@H](O)[C@H](N)[C@H]3O)[C@H](N)C[C@@H]2N)[C@H](N)C[C@@H]1O [Tobramycin, tobramycin] | dose-dependant increase in gel retardation | – |
| NCC[C@H](O)C(=O)N[C@@H]1C[C@H](N)[C@@H](O[C@H]2O[C@H](CN)[C@@H](O)[C@H](O)[C@H]2O)[C@H](O)[C@H]1O[C@H]1O[C@H](CO)[C@@H](O)[C@H](N)[C@H]1O [amikacin] | – | 15 mg/kg of body weight per day |
| Gentamicin | dose-dependant increase in gel retardation | 5 mg/kg of body weight per day |
| neomycin | dose-dependant increase in gel retardation | – |
